Test results from patent US20020137929A1, “1 - (3-heterocyclylphenyl) isothiourea, -isourea, -guanidine and -amidine herbicidal agents” (Intellectual Property Department, BASF Aktiengesellschaft, priority 1998, published 2002).

What was measured:
CYPSE (Flatsedge) [1] = assay: Postemergence weed control under flooded paddy conditions; format: in vivo, Cyperus serotinus; conditions: postemergence weeds, 3-4 weeks after treatment
Summary of the method: (§1)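 With weeds 3 to 5 cm tall and rice at the 1.5 to 2.5 leaf stage, containers were flooded and water held 1.5 to 3 cm above soil. Compounds in 50/50 v/v aqueous/acetone went into the flood water at about 0.0313 to 0.500 kg/ha a.i. Effects were visually rated 0–9 against controls after three to four weeks in the greenhouse.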

ZEAMX (Corn, Field) = assay: Postemergence herbicidal evaluation; format: in vivo, Zea mays
Summary of the method: (§2)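 Visual 0–9 rating versus control (stand, vigor, malformation, size, chlorosis, overall appearance), taken four to five weeks post-spray. Two-week-old seedlings received roughly 0.0156–0.500 kg/ha active in acetone/water (50/50) with 0.5% TWEEN 20 via nozzle at 40 psi.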

CYPSE (Flatsedge) [2] = assay: Preemergence weed control under flooded paddy conditions; format: in vivo, Cyperus serotinus; conditions: rated 3-4 weeks after treatment
Summary of the method: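 Visual injury scored 0-9 against control three to four weeks post-treatment, greenhouse-grown. Application: acetone/water (50/50) solutions dosed directly into flood water (1.5-3 cm over silt loam, planted top 0.5 cm), roughly 0.0313 to 0.500 kg/ha active ingredient.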

AMBEL (Ragweed, Common) = assay: Postemergence herbicidal evaluation; format: in vivo, Ambrosia artemisifolia
Summary of the method: as §2

ORYSAT (Rice, Tebonnet) = assay: Postemergence herbicidal evaluation; format: in vivo, Oryza sativa, (L.) Tebonnet
Summary of the method: as §2

[3] = tested on: GLXMAW (Soybean, Williams); assay: Postemergence herbicidal evaluation; format: in vivo, Glycine max, (L.) Merr. cv Williams
Summary of the method: as §2

ABUTH (Velvetleaf) = assay: Postemergence herbicidal evaluation; format: in vivo, Abutilon theophrasti
Summary of the method: as §2

[4] = tested on: CHEAL (Lambsquarters, Common); assay: Postemergence herbicidal evaluation; format: in vivo, Chenopodium album
Summary of the method: as §2

ECHCG (Barnyardgrass) = assay: Postemergence herbicidal evaluation; format: in vivo, Echinochloa crus-galli
Summary of the method: as §2

CYPIR (Rice Flatsedge) = assay: Postemergence weed control under flooded paddy conditions; format: in vivo, Cyperus iria; conditions: postemergence weeds, 3-4 weeks after treatment
Summary of the method: as §1

2-{{2-Chloro-5-[3,6-dihydro-3-methyl-2,6-dioxo-4-(trifluoromethyl)-1(2H)-pyrimidinyl]-4-fluoro-phenyl}imino}-4-oxo-3,5-thiazolidenediacetic acid, 3-ethyl (2-propynyl) ester, (2:1) mixture with di-2-propynyl ester [Compound 58]
9.0: Postemergence herbicidal rating AMBEL (AMBEL (Ragweed, Common); Rate 0.0158 kg/ha) | Postemergence herbicidal rating AMBEL (AMBEL (Ragweed, Common); Rate 0.0315 kg/ha) | Postemergence herbicidal rating AMBEL (AMBEL (Ragweed, Common); Rate 0.0630 kg/ha) | Postemergence herbicidal rating ABUTH (ABUTH (Velvetleaf); Rate 0.0158 kg/ha) | Postemergence herbicidal rating ABUTH (ABUTH (Velvetleaf); Rate 0.0315 kg/ha) | Postemergence herbicidal rating ABUTH (ABUTH (Velvetleaf); Rate 0.0630 kg/ha) | Postemergence herbicidal rating CHEAL ([4]; Rate 0.0158 kg/ha) | Postemergence herbicidal rating CHEAL ([4]; Rate 0.0315 kg/ha) | Postemergence herbicidal rating CHEAL ([4]; Rate 0.0630 kg/ha) | Postemergence herbicidal rating ECHCG (ECHCG (Barnyardgrass); Rate 0.0630 kg/ha)
8.5: Postemergence herbicidal rating GLXMAW ([3]; Rate 0.0630 kg/ha)
7.0: Postemergence herbicidal rating ZEAMX (ZEAMX (Corn, Field); Rate 0.0158 kg/ha) | Postemergence herbicidal rating ZEAMX (ZEAMX (Corn, Field); Rate 0.0315 kg/ha) | Postemergence herbicidal rating GLXMAW ([3]; Rate 0.0158 kg/ha) | Postemergence herbicidal rating GLXMAW ([3]; Rate 0.0315 kg/ha) | Postemergence herbicidal rating ECHCG (ECHCG (Barnyardgrass); Rate 0.0158 kg/ha) | Postemergence herbicidal rating ECHCG (ECHCG (Barnyardgrass); Rate 0.0315 kg/ha)
5.0: Herbicidal rating CYPSE (CYPSE (Flatsedge) [1]; rate 0.0313 kg/ha) | Herbicidal rating CYPSE (CYPSE (Flatsedge) [1]; rate 0.0625 kg/ha) | Herbicidal rating CYPSE (CYPSE (Flatsedge) [1]; rate 0.1250 kg/ha) | Herbicidal rating CYPSE (CYPSE (Flatsedge) [1]; rate 0.2500 kg/ha) | CYPSE herbicidal effect rating (CYPSE (Flatsedge) [2]; 0.0313 kg/ha) | Herbicidal rating CYPSE (CYPSE (Flatsedge) [2]; 0.0625 kg/ha) | Herbicidal rating CYPSE (CYPSE (Flatsedge) [2]; 0.1250 kg/ha) | Herbicidal rating CYPSE (CYPSE (Flatsedge) [2]; 0.2500 kg/ha)
0.0: Herbicidal rating CYPIR (CYPIR (Rice Flatsedge); rate 0.0313 kg/ha) | Herbicidal rating CYPIR (CYPIR (Rice Flatsedge); rate 0.0625 kg/ha)
6.0: Postemergence herbicidal rating ORYSAT (ORYSAT (Rice, Tebonnet); Rate 0.0630 kg/ha)
2.0: Herbicidal rating CYPIR (CYPIR (Rice Flatsedge); rate 0.1250 kg/ha)
8.0: Postemergence herbicidal rating ZEAMX (ZEAMX (Corn, Field); Rate 0.0630 kg/ha)
3.0: Herbicidal rating CYPIR (CYPIR (Rice Flatsedge); rate 0.2500 kg/ha)
5.5: Postemergence herbicidal rating ORYSAT (ORYSAT (Rice, Tebonnet); Rate 0.0158 kg/ha) | Postemergence herbicidal rating ORYSAT (ORYSAT (Rice, Tebonnet); Rate 0.0315 kg/ha)
